Data taken from patent publication US10051861B2, “N-arylamidine-substituted trifluoroethyl sulfide derivatives as acaricides and insecticides” (BAYER CROPSCIENCE AG, priority 2011, dated 2018).
Marks after values point to notes of the source that are not given here.

Assays:
[1] = logP by HPLC on reversed-phase columns (C 18), EEC Directive 79/831 Annex V.A8; assay type: physicochemical; conditions: for logP(HCOOH): pH 2.7; for logP(neutral): pH 7.8
Experimental: Calibration is carried out using unbranched alkan-2-ones (having from 3 to 16 carbon atoms) with known log P values (the log P values are determined by the retention times using linear interpolation between two successive alkanones).

[2] = tested on: greenhouse red spider mite (Tetranychus urticae); assay: Tetranychus test, OP-resistant (TETRUR spray treatment); assay type: in vivo; conditions: application rate 500 g/ha, after 6 days
Experimental: (§1) After 6 days, the effect in % is determined.

[3] = tested on: Meloidogyne incognita; assay: Meloidogyne incognita test (MELGIN); assay type: in vivo; conditions: application rate 20 ppm, after 14 days
Experimental: Solvents: 80.0 parts by weight of acetone
Containers are filled with sand, solution of active compound, Meloidogyne incognita egg/larvae suspension and lettuce seeds. The lettuce seeds germinate and the plants develop. On the roots, galls are formed.
After 14 days, the nematicidal efficacy in % is determined by the formation of galls. 100% means that no galls have been found; 0% means that the number of galls on the treated plants corresponds to the untreated control.

[4] = tested on: greenhouse red spider mite (Tetranychus urticae); assay: Tetranychus urticae spray test, OP-resistant (TETRUR), bean leaf disks; assay type: in vivo; conditions: application rate 500 g/ha, after 6 days
Experimental: as §1

[5] = tested on: Lucilia cuprina larvae; assay: Lucilia cuprina (48 h); assay type: in vivo; conditions: application rate 100 ppm, after 48 hours
Experimental: (§2) Solvent: dimethyl sulfoxide
10 mg of active compound are dissolved in 0.5 ml of dimethyl sulfoxide. To prepare a suitable formulation, the active compound solution is diluted with water to the concentration desired in each case. About 20 Lucilia cuprina larvae are introduced into a test tube which contains about 1 cm^3 of horse meat and 0.5 ml of the preparation of active compound to be tested. After 48 hours, the efficacy of the active compound preparation is determined as % larvae mortality.

[6] = tested on: Boophilus microplus; assay: Boophilus microplus test (BOOPMI injection); assay type: in vivo; parameters: dose or concentration left out as unconfirmed; conditions: after 7 days
Experimental: as §2
The solution of active compound is injected into the abdomen (Boophilus microplus), and the animals are transferred into dishes and kept in a climatized room. The activity is assessed by laying of fertile eggs.
100% means that none of the ticks has laid any fertile eggs.

[7] = tested on: cattle ticks (Boophilus microplus); assay: Boophilus microplus injection test (BOOPMI Inj); assay type: in vivo; conditions: application rate 20 μg/animal, injection, after 7 days
Experimental: as §2
1 μl of the active compound solution is injected into the abdomen of 5 engorged adult female cattle ticks (Boophilus microplus). The animals are transferred into dishes and kept in a climate-controlled room.
The activity is assessed after 7 days by laying of fertile eggs. Eggs whose fertility is not visible from the outside are stored in a climate-controlled cabinet until the larvae hatch after about 42 days. An efficacy of 100% means that none of the ticks has laid any fertile eggs; 0% means that all eggs are fertile.

[8] = tested on: L1 larvae of the Australian sheep blowfly (Lucilia cuprina); assay: Lucilia cuprina test (LUCICU); assay type: in vivo; conditions: application rate 100 ppm, after 2 days
Experimental: as §2
About 20 L1 larvae of the Australian sheep blowfly (Lucilia cuprina) are transferred into a test vessel containing minced horsemeat and the active compound preparation of the desired concentration.
After 2 days, the kill in % is determined.

[9] = tested on: nematode larvae (Cooperia curticei); assay: Cooperia curticei test (COOPCU); assay type: in vivo; conditions: application rate 100 ppm, after 5 days
Experimental: as §2
Vessels containing the active compound preparation of the desired concentration are populated with about 40 nematode larvae (Cooperia curticei).
After 5 days, the kill in % is determined.

[10] = tested on: larvae of the mustard beetle (Phaedon cochleariae); assay: Phaedon test (PHAECO spray treatment); conditions: application rate 500 g/ha, after 7 days
[11] = tested on: larvae of the mustard beetle (Phaedon cochleariae); assay: Phaedon cochleariae spray test (PHAECO); conditions: for effect (beetle larvae killed): application rate 500 g/ha, after 7 days
[12] = tested on: green peach aphid (Myzus persicae); assay: Myzus persicae spray test (MYZUPE); assay type: in vivo; conditions: application rate 500 g/ha, after 6 days
Experimental: as §1

[13] = tested on: greenhouse red spider mite (Tetranychus urticae); assay: Tetranychus urticae spray test, OP-resistant (TETRUR), bean plants; assay type: in vivo; conditions: application rate 100 ppm, after 7 days
Experimental: Solvents: 7 parts by weight of dimethylformamide
Emulsifier: 2 part by weight of alkylaryl polyglycol ether
If the addition of ammonium salts or/and penetrants is required, these are in each case added in a concentration of 1000 ppm to the solution of the preparation.
Bean plants (Phaseolus vulgaris) which are heavily infested by all stages of the greenhouse red spider mite (Tetranychus urticae) are treated by spraying with the active compound preparation of the desired concentration.

SMILES | logP(HCOOH) [1] | logP(neutral) [1] | efficacy (spider mites killed) [2] [%] | nematicidal efficacy (formation of galls) [3] [%] | efficacy (spider mites killed) [4] [%] | effect (% larvae mortality) [5] [%] | efficacy (laying of fertile eggs) [6] [%] | efficacy (laying of fertile eggs) [7] [%] | efficacy (kill of larvae) [8] [%] | efficacy (beetle larvae killed) [10] [%] | effect (beetle larvae killed) [11] [%] | other results
Cc1cc(C)c(SCC(F)(F)F)cc1N=C(N)C(F)(F)F [Ia-07] | 3.36 | 3.4 | 100 | 90 | 100 | – | – | – | – | – | – | –
Cc1cc(F)c(N=C(N)C(F)(F)F)cc1SCC(F)(F)F [Ia-21] | – | 3.12^[b] | – | – | 100 | 100 | 100 | 100 | 100 | – | – | –
CCN/C(=N\c1cc(SCC(F)(F)F)c(Cl)cc1Cl)c1cccnc1 [Ia-220] | – | – | – | – | – | – | – | – | – | – | – | efficacy (kill of larvae) [9]: 100%; pest or weed control at 500 g/ha ([4]; Tetranychus urticae, foliar, 144 h, read-out: efficacy (spider mites killed)): 90%
CCNC(=Nc1cc([S+]([O-])CC(F)(F)F)c(C)cc1F)C(F)(F)F (stereo not drawn) [Ib-02] | – | – | 100 | 100 | 100 | – | – | 100 | 80 | 100 | 100 | –
Cc1cc(F)c(/N=C(/N)C(F)(F)F)cc1[S+]([O-])CC(F)(F)F (stereo not drawn) [Ib-11] | 2.77 | 2.71 | – | – | 100 | 100 | 100 | 100 | 100 | 100 | 100 | –
N/C(=N/c1cc([S@@+]([O-])CC(F)(F)F)c(Cl)cc1Cl)C(F)(F)F [Ib-44] | – | – | – | – | – | – | – | – | – | – | – | pest or weed control at 0.02 mg ([7]; Rhipicephalus microplus, 168 h, read-out: efficacy (laying of fertile eggs)): 90%; effect (aphids killed) [12]: 100%; efficacy (spider mites killed) [13]: 90%; pest or weed control at 500 g/ha ([11]; Phaedon cochleariae, 168 h, read-out: effect (beetle larvae killed)): 100%
